Here are results for five compounds from patent US8633168B2, “Inhibitors of S-adenosyl-L-methionine decarboxylase” (Genzyme Corporation, priority 2007, dated 2014).

Some results are limits rather than exact numbers.

The nature of data set [1]: Microsomal stability, human. In kind it is in vitro ADME. The note with it: for Microsomal stability (CL) human: Table 2; for CLint scaled: Example 12 chart. As to the method: (§1) Liver microsomes and hepatocytes represent an in vitro surrogate for assessing the phase I/II metabolic stability of new discovery leads. Following the incubation of the compounds with microsomes or hepatocytes of different species (e.g., human, rat, dog, monkey, mouse), the samples were transferred to 96 well plates for quantitation using LC/MS/MS. The % of compound remaining was measured and used to calculate clearance and % hepatic blood flow.

For the next data set, the system named is Schistosomes lavae. Description: Screening against Schistosomes, larvae. In kind it is cell-based. The note with it: Screening Data.
A short description of data set [2]: Permeability through lipid soaked artificial membrane. In kind it is in vitro ADME. The note with it: for Papp: PAMPA; for Perm.: Table 2. As to the method: A stock solution for each test compound was prepared at 10 mM in DMSO. These were diluted into phosphate buffer and placed on one side (donor) of a two chamber microtiter plate separated by a lipid soaked membrane. With time, the compound passively diffused across the membrane barrier and the concentration in the second chamber (acceptor) increases. At the end of the experiment, drug concentration was determined in both the donor and acceptor solutions by UV absorbance. The permeability was calculated from the change in concentration, surface area, and incubation time.
Background: The PAMPA barrier holds no transporters, so it reflects passive diffusion.

For a further data set, the target named is T1, T. brucei SAM DC (Trypanosoma brucei brucei, UniProt P50244).
T1 construct: made in house
T1 sequence (P50244 86-370 limits assumed): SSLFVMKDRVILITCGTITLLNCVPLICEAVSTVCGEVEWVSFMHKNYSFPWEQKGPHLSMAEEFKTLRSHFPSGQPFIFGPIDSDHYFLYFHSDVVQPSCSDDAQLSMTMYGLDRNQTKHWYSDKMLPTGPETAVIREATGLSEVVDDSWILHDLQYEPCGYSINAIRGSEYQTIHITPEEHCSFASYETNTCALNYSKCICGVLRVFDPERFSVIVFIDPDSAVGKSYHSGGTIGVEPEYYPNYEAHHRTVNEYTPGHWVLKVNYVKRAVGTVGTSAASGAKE
Description: SAMDC enzyme inhibition assay (14CO2 release from 14C-AdoMet). In kind it is biochemical. The note with it: Table 1; read-out: kinact/Ki^app against SAM DC enzyme by SW (converted). The protocol: Steady state kinetics were performed as described (Kinch, L. N., J. R. Scott, B. Ullman, and M. A. Phillips. “Cloning and Kinetic Characterization of the Trypanosoma Cruzi S-Adenosylmethionine Decarboxylase.” Mol Biochem Parasitol 101, no. 1-2 (1999): 1-11. Beswick, T. C., E. K. Willert, and M. A. Phillips. “Mechanisms of Allosteric Regulation of Trypanosoma Cruzi S-Adenosylmethionine Decarboxylase.” Biochemistry 45, no. 25 (2006): 7797-807.). This assay measures the amount of ^14CO2 elaborated by enzymatic cleavage of ^14C-AdoMet. Reactions were carried out in assay buffer (100 mM Hepes pH 8.0, 50 mM NaCl, and 1 mM DTT) using the AdoMetDC/AdoMetDC Prozyme complex at ^14C-AdoMet concentrations of 10-160 μM with saturating putrescine (5 mM) (Willert E K, Phillips M A, 2007. “Allosteric regulation of an essential trypanosome polyamine biosynthetic enzyme by a catalytically dead homolog”. Proc Natl Acad Sci USA 104: 8275-8280). The reaction components were added to a test tube on ice to a total final volume of 100 μl. The reaction was initiated by the addition of enzyme (1-4 μM for T. brucei SAM DC), and a piece of filter paper soaked in saturated barium hydroxide was hung on the side of the test tube, which was then capped with a rubber stopper. Reactions were incubated at 37° C. in a water bath for 5-40 minutes. The assay was stopped by the addition of 200 μl 6 M HCl. The quenched reaction was kept at 37° C. for at least 30 minutes to allow for evolution of the CO2 from the solution. The filter paper was then added to 5 ml of scintillation fluid and counted. Test compounds were assessed over a range of 4 concentrations. Kinetic and regression analysis were performed using GraphPad Prism™.
Purified, recombinant T. brucei SAM-decarboxylase and its prozyme are prepared and assayed in the laboratory of Dr. Phillips according to procedures from that lab. Kinch L N, Scott J R, Ullman B, Phillips M A, “Cloning and kinetic characterization of the Trypanosoma cruzi S-adenosylmethionine decarboxylase,” Mol Biochem Parasitol 101: 1-11. Willert E K, Fitzpatrick R, Phillips M A, 2007 (1999). Briefly, the assay employs ^14C-labelled S-adenosyl methionine (^14C-AdoMet). Reactions are carried out in buffer (100 mM Hepes pH 8.0, 50 mM NaCl, and 5 mM DTT) at ^14C-AdoMet concentrations of 10-160 μM with saturating putrescine (5 mM). The reaction components are added to a test tube on ice to a total final volume of 100 μl. The reaction is initiated by the addition of enzyme (1-4 μM for T. brucei SAM DC), and a piece of filter paper soaked in saturated barium hydroxide is hung on the side of the test tube, which is then capped with a rubber stopper. Reactions are incubated at 37° C. in a water bath for 5-40 minutes. The assay is stopped by the addition of 200 μl 6 M HCl. The quenched reaction is kept at 37° C. for at least 30 minutes to allow for evolution of the CO2 from the solution. The filter paper is then added to 5 ml of scintillation fluid and counted. Test compounds were assessed over a range of 4 concentrations. Kinetic and regression analysis are performed using GraphPad Prism.™ Results of this test are exemplified in FIG. 4.

Data set [3] is described as follows: Hepatocyte stability, human. The class given is in vitro ADME. The note with it: for Hepatocyte stability (CL) human: Table 2; for CLint scaled: hepatocytes, Example 12 chart. The protocol:
as §1

As usually defined, the CLint scaled is a measure of how fast metabolising enzymes remove a compound, apart from limits set by blood flow. High values mean faster metabolism, low ones greater metabolic stability. One may read the IC50 as the point on the concentration scale where inhibition reaches its midpoint. A word on the Papp: it is a coefficient for how fast a substance crosses the barrier. `CN(C/C=C\CN)CC1OC(n2cnc3c(N)ncnc32)C(O)C1O` (centres unmarked) [MDL-73811, reference compound]: in data set [1], the “Microsomal stability (CL) human” value is given as below 4.2 mL/min/kg. In data set [1] (microsomes), this compound returned a CLint scaled below 4.5 mL/min/kg. The compound also had an IC50 in the data set on Schistosomes lavae above 10 µM. This compound had a Papp in data set [2] (Example 12 chart) of 1.1 ×10⁻⁶ cm/s. Moreover, the Perm. in data set [2] was 0.13 10-6 cm/s. For the same compound, the kinact/KI at T. brucei SAM DC is 24900 M⁻¹ s⁻¹. Besides, in data set [3], the “Hepatocyte stability (CL) human” value is below 4.2 mL/min/kg and the CLint scaled was below 1.7 mL/min/kg.

In the case of `CN(C/C=C\CN)C[C@H]1O[C@@H](n2cnc3c(N)nc(Cl)nc32)[C@H](O)[C@@H]1O` [Compound 3], the “Microsomal stability (CL) human” value in data set [1] is recorded as below 4.2 mL/min/kg. For the same compound, the CLint scaled in data set [1] (liver microsomes) is below 4.5 mL/min/kg. In the data set on Schistosomes lavae, the IC50 is above 10 µM. In data set [2] (Example 12 chart), the Permeability is recorded as 0.36 10−6 cm/sec. Besides, in data set [2], the Perm. was 0.36 10-6 cm/s. Further, the kinact/KI at T. brucei SAM DC is 300 M⁻¹ s⁻¹. Moreover, in data set [3], the “Hepatocyte stability (CL) human” value is recorded as below 4.2 mL/min/kg and the intrinsic metabolic clearance (CLint scaled) is below 1.7 mL/min/kg.

In the case of `CN(C/C=C\CN)C[C@H]1O[C@@H](n2cnc3c(N)ncnc32)[C@@H](F)[C@@H]1O` [Compound 2], the “Microsomal stability (CL) human” value in data set [1] is below 4.2 mL/min/kg. For the same compound, the CLint scaled in data set [1] (liver microsomes) is below 4.5 mL/min/kg; in data set [3], below 1.7 mL/min/kg. Also, the IC50 in the data set with Schistosomes lavae is above 10 µM. In addition, the Perm. in data set [2] is on record as 0.00 10-6 cm/s. The kinact/KI on T. brucei SAM DC is 32700 M⁻¹ s⁻¹. For the same compound, the “Hepatocyte stability (CL) human” value in data set [3] is recorded as below 4.2 mL/min/kg.

`Cc1nc2c(N)ncnc2n1[C@@H]1O[C@H](CN(C)C/C=C\CN)[C@@H](O)[C@H]1O` (stereo in doubt) [Compound 4]: the “Microsomal stability (CL) human” value in data set [1] is recorded as below 4.2 mL/min/kg. Also, the CLint scaled in data set [1] (liver microsomes) is below 4.5 mL/min/kg; in data set [3] it was below 1.7 mL/min/kg. In addition, in the data set with Schistosomes lavae, the IC50 was above 10 µM. In data set [2] (Example 12 chart), this compound displayed a Papp of 0.22 ×10⁻⁶ cm/s. The Perm. in data set [2] is recorded as 0.22 10-6 cm/s. Besides, the kinact/KI at T. brucei SAM DC was 130000 M⁻¹ s⁻¹. Besides, in data set [3], the “Hepatocyte stability (CL) human” value is below 4.2 mL/min/kg.

Regarding `CN(C/C=C\CN)C[C@H]1O[C@@H](n2cnc3c(N)ncnc32)[C@H](F)[C@@H]1O` (stereo in doubt) [Compound 1], in data set [1], the “Microsomal stability (CL) human” value is listed as below 4.2 mL/min/kg. The CLint scaled in data set [1] (liver microsomes) was below 4.5 mL/min/kg. In the data set with Schistosomes lavae, the IC50 is above 10 µM. Further, the Perm. in data set [2] was 0.00 10-6 cm/s. In addition, the kinact/KI at T. brucei SAM DC is 3200 M⁻¹ s⁻¹. Moreover, in data set [3], the “Hepatocyte stability (CL) human” value is recorded as below 4.2 mL/min/kg and the CLint scaled is below 1.7 mL/min/kg.
